Measurements reported in US20180116972A1, “Lipid based nanocarrier compositions loaded with metal nanoparticles and therapeutic agent” (UNIVERSITE DE BORDEAUX, priority 2015, published 2018).
Entries after “also recorded” stand apart in the source; their conditions may differ.

Assays:
[1] = Stability of a suspension of iron oxide nanoparticles clusters encapsulated by a lipid (DOPC) versus a nucleolipid (DOTAU); settings: Milli-Q water, sonicated 3×15 minutes
Description: 75 μL of stock solution of (DOPC) (Avanti Polar ipids, 50 mg/mL in chloroform) and 20 μL of stock solution of iron oxide nanoparticles (10 mg/mL in chloroform) were mixed. The organic phase was added dropwise into the aqueous phase (2 ml of Milli-Q Water) placed in glass tube under stirring by vortex. Then the mixture was placed in a glass flask. Chloroform was removed under vacuum and the resulting crude material solution was sonicated 3 times (3×15 minutes) to give a precipitate.
The same protocol was followed, except that the nucleolipid N-[5′-(2′,3′-dioleoyl)uridine]-N′,N′,N′-trimethylammonium (DOTAU) was used instead of DOPC.

[2] = tested on: Platelet rich plasma (PRP); test: In vitro platelet aggregation (light transmission aggregometer); type: cell-based, healthy volunteers; settings: 37° C.
Description: Blood was obtained in 1/10th volume of 3.8% sodium citrate from healthy volunteers who had not taken any drugs known to affect platelet function for 2 weeks prior to the study. Platelet rich plasma (PRP) was prepared by centrifugation at 20° C. for 10-15 min at 150-200 g and stored at room temperature.
Platelet-poor plasma (PPP) was prepared by further centrifugation of the remaining plasma at 2700 g for 15 min and was used to calibrate the 100% light transmission of the aggregometer.
The percentage of aggregation was followed versus time. PRP (207 μL) was stirred in cuvette at 37° C. and agonists adenosine 5′-diphosphate (ADP) or thrombin receptor-activating peptide -6 (TRAP-6) were added at 5 s to promote platelet aggregation, and was incubated either with the DOU-PEG2000-based nanocarrier composition containing iron oxide nanoparticles and prostacyclin (PGI2) of example 2, or with the iron oxide nanoparticles clusters encapsulated by diC16dT of preparation 2 (used as negative control) or with the agonist(s) only (negative control) or with the agonist(s) and PGI2 (positive control) for 15 min and 3 h for evaluating PGI2 activity. The in vitro platelet aggregation was determined using a four-channel light transmission aggregometer (APACT 4004, ELITech, France).
The results are shown on FIG. 12, where the curves numbered 1 to 7 represent the following experimental conditions: […]

[3] = Size distribution measured by Dynamic Light Scattering (DLS); type: physicochemical

## CCCCCCCC/C=C\CCCCCCCC(=O)O[C@@H]1[C@H](OC(=O)CCCCCCC/C=C\CCCCCCCC)[C@@H](C[N+](C)(C)C)O[C@H]1n1ccc(=O)[nH]c1=O [DOTAU, N-[5′-(2′,3′-dioleoyl)uridine]-N′,N′,N′-trimethylammonium]
[1]
  colloidal stability of the iron oxide nanoparticle suspension after sonication: did not give a precipitate; also recorded: stable colloïdal suspension

## CCCCC[C@H](O)/C=C/[C@@H]1[C@H]2C/C(=C/CCCC(=O)O)O[C@H]2C[C@H]1O [PGI2, prostacyclin]
[2]; agonist ADP, 15 min incubation
  platelet aggregation induced by ADP: totally inhibit
[2]; agonist TRAP-6, 3 h incubation
  platelet aggregation induced by TRAP-6: totally inhibit

## APOA1: Apolipoprotein-A1 (Sigma Aldrich)
[3]
  size distribution by number measured by DLS (d): 5.01 nm
